Common to all, as to format: cell-based
For assay [1], the system named is Candida albicans ATCC 10231 (A). In words: MIC determination by in vitro antifungal assay. Particulars: ATCC10231, 48 h, read-out: MIC (MIC-0).
The subject of assay [2] is C. albicans ATCC 64124(R) (B). In words: MIC determination by in vitro antifungal assay. Particulars: Candida albicans, ATCC64124, 48 h, read-out: MIC (MIC-0).
Assay [3] deals with C. albicans ATCC MYA-2876(S) (C). In words: MIC determination by in vitro antifungal assay. Particulars: Candida albicans, 48 h, read-out: MIC (MIC-0).
Assay [4] concerns C. albicans ATCC 90819(R) (D). Put plainly: MIC determination by in vitro antifungal assay. Particulars: Candida albicans, ATCC90819, 48 h, read-out: MIC (MIC-0).
The subject of assay [5] is C. albicans ATCC MYA-2310(S) (E). In words: MIC determination by in vitro antifungal assay. Particulars: Candida albicans, 48 h, read-out: MIC (MIC-0).
Assay [6] deals with C. albicans ATCC MYA-1237(R) (F). In words: MIC determination by in vitro antifungal assay. Particulars: Candida albicans, 48 h, read-out: MIC (MIC-0).
Assay [7] concerns C. albicans ATCC MYA-1003(R) (G). In words: MIC determination by in vitro antifungal assay. Particulars: Candida albicans, 48 h, read-out: MIC (MIC-0).
Assay [8] deals with Aspergillus flavus ATCC MYA-3631 (K). In words: MIC determination against filamentous fungi. Particulars: 48 h, read-out: MIC (MIC-0).
In assay [9] the test system is Aspergillus nidulans ATCC 38163 (L). Put plainly: MIC determination against filamentous fungi. Particulars: ATCC38163, 48 h, read-out: MIC (MIC-0).
Assay [10] has as its system Aspergillus terreus ATCC MYA-3633 (M). In words: MIC determination against filamentous fungi. Particulars: 48 h, read-out: MIC (MIC-0).
In assay [11] the test system is C. albicans, non-albicans Candida, and Aspergillus strains. Put plainly: Antifungal activity over the panel of 13 fungal strains. Particulars: for MIC: read-out: antifungal activity class based on MIC values; for antifungal activity class based on MIC values: against all fungal strains tested (5 and 6 except strain K); for antifungal activity (in words): overall, fungal strains tested (27 except strains K and L).

In brackets after ≈: the same amount, converted by molar mass.

What is called MIC is the smallest concentration in the dilution series that meets the test's criterion for growth inhibition. `CCCCCCCCCN1CCNCC1` [Compound 4, 1-Nonyl Piperazine]: the MIC was 31.3 µg/mL (≈ 147 µM) in [1]; over 31.3 µg/mL in [2]; over 31.3 µg/mL in assay [3]; 31.3 µg/mL (≈ 147 µM) in assay [4]; 31.3 µg/mL (≈ 147 µM) in [5]; 31.3 µg/mL (≈ 147 µM) in assay [6]. Moreover, the minimal inhibitory concentration (MIC) in assay [7] was over 31.3 µg/mL; in assay [8] it was 31.3 µg/mL (≈ 147 µM); in [9], over 31.3 µg/mL; in assay [10], over 31.3 µg/mL; in assay [11] it was at least 31.3 µg/mL.

Take `CCCCCCCCCCCCCN1CCN(CC(O)(Cn2cncn2)c2ccc(F)cc2F)CC1` (centres unmarked) [Compound 23, 2-(2,4-Difluorophenyl)-1-(1H-1,2,4-triazol-1-yl)-3-(4-tridecylpiperazine)propan-2-ol]: the minimum inhibitory concentration (MIC) in [1] was determined as 1.95 µg/mL (≈ 3.86 µM); in [2], 7.8 µg/mL (≈ 15.4 µM); in assay [3], 1.95 µg/mL (≈ 3.86 µM); in assay [4] it was 1.95 µg/mL (≈ 3.86 µM); in assay [8], 0.975 µg/mL (≈ 1.93 µM); in [9] it was 0.975 µg/mL (≈ 1.93 µM). In addition, the MIC in assay [10] is 0.975 µg/mL (≈ 1.93 µM).

For the molecule `CCCCCN1CCNCC1` [Compound 2, N-pentylpiperazine], the MIC in assay [1], in assay [2], in [3], in [4], in assay [5] and in assay [6] was over 31.3 µg/mL each time. In addition, the MIC was over 31.3 µg/mL in assay [7]; over 31.3 µg/mL in assay [8]; over 31.3 µg/mL in assay [9]; over 31.3 µg/mL in assay [10]; at least 31.3 µg/mL in assay [11].

Consider `CCCCCCCCCCN1CCNCC1` [Compound 5, 1-Decyl Piperazine], for which the minimum inhibitory concentration (MIC) in assay [1], in assay [2], in [3], in assay [4], in [5] and in [6] was 15.6 µg/mL (≈ 68.9 µM) throughout. Further, the MIC in assay [7] was 15.6 µg/mL (≈ 68.9 µM); in [8] it was 31.3 µg/mL (≈ 138 µM); in assay [9] it was 15.6 µg/mL (≈ 68.9 µM); in assay [10], 15.6 µg/mL (≈ 68.9 µM). In assay [11], the “antifungal activity class based on MIC values” was “moderately active”.

As for `CN1CCNCC1` [Compound 1, N-methylpiperazine], the MIC in [1], in assay [2], in [3], in [4], in assay [5] and in assay [6] was over 31.3 µg/mL each time. For the same molecule, the MIC in assay [7] is over 31.3 µg/mL; in assay [8], over 31.3 µg/mL; in [9], over 31.3 µg/mL; in assay [10], over 31.3 µg/mL; in [11] it was at least 31.3 µg/mL.

On to `OC(CNCCN1CCOCC1)(Cn1cncn1)c1ccc(F)cc1F` (centres unmarked) [Compound 28, 2-(2,4-Difluorophenyl)-1-(1H-1,2,4-triazol-1-yl)-3-(4-(2-aminoethyl)morpholine)propan-2-ol], for which the MIC in assay [1] is 31.3 µg/mL (≈ 85.2 µM); in assay [2], 31.3 µg/mL (≈ 85.2 µM); in assay [3], 31.3 µg/mL (≈ 85.2 µM); in assay [4], over 31.3 µg/mL; in [5], over 31.3 µg/mL; in [6] it was 31.3 µg/mL (≈ 85.2 µM). Further, the MIC in assay [7], in assay [8], in [9] and in assay [10] was over 31.3 µg/mL throughout. Moreover, the “antifungal activity (in words)” value in [11] is “inactive”.

In the case of `CCCCCCCCCCCN1CCN(CC(O)(Cn2cncn2)c2ccc(F)cc2F)CC1` (centres unmarked) [Compound 21, 2-(2,4-Difluorophenyl)-1-(1H-1,2,4-triazol-1-yl)-3-(4-undecylpiperazine)propan-2-ol], the minimal inhibitory concentration (MIC) in assay [1] came to 1.95 µg/mL (≈ 4.08 µM); in assay [2], 15.6 µg/mL (≈ 32.7 µM); in assay [3], 7.8 µg/mL (≈ 16.3 µM); in [4] it was 15.6 µg/mL (≈ 32.7 µM); in [5], 15.6 µg/mL (≈ 32.7 µM); in assay [6], 15.6 µg/mL (≈ 32.7 µM). Moreover, the minimal inhibitory concentration (MIC) worked out at 15.6 µg/mL (≈ 32.7 µM) in assay [7], 1.95 µg/mL (≈ 4.08 µM) in [8], 1.95 µg/mL (≈ 4.08 µM) in assay [9] and 1.95 µg/mL (≈ 4.08 µM) in assay [10].

Take `OC(CN1CCOCC1)(Cn1cncn1)c1ccc(F)cc1F` (centres unmarked) [Compound 27, 2-(2,4-Difluorophenyl)-1-(1H-1,2,4-triazol-1-yl)-3-(mopholine)-propan-2-ol]: the minimum inhibitory concentration (MIC) in [1] was over 31.3 µg/mL; in assay [2], over 31.3 µg/mL; in assay [3], over 31.3 µg/mL; in assay [4] it was 3.9 to 31.3 µg/mL (≈ 12 to 96.5 µM); in assay [5], 7.8 to 31.3 µg/mL (≈ 24 to 96.5 µM); in assay [6], over 31.3 µg/mL. Further, the MIC in assay [7] was 31.3 µg/mL (≈ 96.5 µM); in [9] it was 1.95 µg/mL (≈ 6.01 µM); in assay [10] it was 15.6 µg/mL (≈ 48.1 µM). In addition, in assay [11], the “antifungal activity (in words)” value is “inactive”.

Turning to `CCCCCCCCCCCCCN1CCNCC1` [Compound 8, 1-Tridecyl Piperazine], the MIC in assay [1] was 0.975 µg/mL (≈ 3.63 µM); in assay [2] it was 0.975 µg/mL (≈ 3.63 µM); in [3], 1.95 µg/mL (≈ 7.26 µM); in assay [4], 0.975 µg/mL (≈ 3.63 µM); in assay [5] it was 1.95 µg/mL (≈ 7.26 µM); in assay [6], 1.95 µg/mL (≈ 7.26 µM). Further, the MIC in assay [7] was 1.95 µg/mL (≈ 7.26 µM); in assay [8], 1.95 µg/mL (≈ 7.26 µM); in [9] it was 0.975 µg/mL (≈ 3.63 µM); in assay [10], 1.95 µg/mL (≈ 7.26 µM); in assay [11], 0.015 to 1.95 µg/mL (≈ 0.0559 to 7.26 µM).

Consider `CCCCCCCCCCCCCCN1CCOCC1` [Compound 10, 4-Tetradecyl Morpholine], for which the MIC in [1], in [2], in assay [3], in assay [4], in assay [5] and in assay [6] was over 31.3 µg/mL throughout. Also, the minimum inhibitory concentration (MIC) in assay [7] is over 31.3 µg/mL; in assay [8], over 31.3 µg/mL; in assay [9], over 31.3 µg/mL; in assay [10] it was over 31.3 µg/mL; in [11] it was at least 31.3 µg/mL.

In the case of `CCCCCN1CCN(CC(O)(Cn2cncn2)c2ccc(F)cc2F)CC1` (centres unmarked) [Compound 17, 2-(2,4-Difluorophenyl)-1-(1H-1,2,4-triazol-1-yl)-3-(4-pentylpiperazine)propan-2-ol], the MIC in [1] was over 31.3 µg/mL; in [2], over 31.3 µg/mL; in assay [3] it was over 31.3 µg/mL; in [4] it was 31.3 µg/mL (≈ 79.5 µM); in assay [5] it was over 31.3 µg/mL; in assay [6], over 31.3 µg/mL. The MIC in [7], in [8], in assay [9] and in assay [10] was over 31.3 µg/mL in each case. Further, in assay [11], the “antifungal activity (in words)” value is “basically inactive”.

As for `CCCCCCCCCN1CCN(CC(O)(Cn2cncn2)c2ccc(F)cc2F)CC1` (centres unmarked) [Compound 19, 2-(2,4-Difluorophenyl)-1-(1H-1,2,4-triazol-1-yl)-3-(4-nonylpiperazine)propan-2-ol], the MIC in assay [1] was determined as 0.975 µg/mL (≈ 2.17 µM); in assay [2], 7.8 µg/mL (≈ 17.3 µM); in assay [3], 3.9 µg/mL (≈ 8.67 µM); in [4], 7.8 µg/mL (≈ 17.3 µM); in assay [5] it was 15.6 µg/mL (≈ 34.7 µM); in assay [6] it was 15.6 µg/mL (≈ 34.7 µM). The minimum inhibitory concentration (MIC) in assay [7] turned out to be 15.6 µg/mL (≈ 34.7 µM); in assay [8], 0.48 µg/mL (≈ 1.07 µM); in assay [9] it was 0.975 µg/mL (≈ 2.17 µM); in assay [10], 1.95 µg/mL (≈ 4.34 µM).

On to `CCCCCCCCN1CCNCC1` [Compound 3, 1-Octyl Piperazine], for which the minimal inhibitory concentration (MIC) in assay [1], in assay [2], in [3], in assay [4], in assay [5] and in [6] was over 31.3 µg/mL throughout. The MIC in assay [7], in [8], in assay [9] and in [10] was over 31.3 µg/mL each time.

Consider `CC[C@H](C)C[C@H](C)CCCCCCCCC(=O)N[C@H]1C[C@@H](O)[C@@H](NCCN)NC(=O)[C@@H]2[C@@H](O)CCN2C(=O)[C@H]([C@H](O)CCN)NC(=O)[C@H]([C@H](O)[C@@H](O)c2ccc(O)cc2)NC(=O)[C@@H]2C[C@@H](O)CN2C(=O)[C@H]([C@@H](C)O)NC1=O` [CAS, caspofungin, reference compound], for which the minimum inhibitory concentration (MIC) was found to be 0.975 µg/mL (≈ 0.892 µM) in [1]; 0.24 µg/mL (≈ 0.22 µM) in assay [2]; 0.06 µg/mL (≈ 0.0549 µM) in assay [3]; 0.12 µg/mL (≈ 0.11 µM) in assay [4]; 0.12 µg/mL (≈ 0.11 µM) in assay [5]; 0.24 µg/mL (≈ 0.22 µM) in assay [6]. For the same molecule, the MIC in assay [7] was 0.48 µg/mL (≈ 0.439 µM); in assay [8] it was over 31.3 µg/mL; in assay [9] it was over 31.3 µg/mL; in assay [10], over 31.3 µg/mL.

As for `Fc1ccc(C2(Cn3cncn3)CO2)c(F)c1` (centres unmarked) [Compound 14, 1-[[2-(2,4-Difluorophenyl)-2-oxiranyl]methyl]-1H-1,2,4-triazole], the MIC in assay [1], in assay [2], in [3], in [4], in [5] and in assay [6] was over 31.3 µg/mL throughout. Also, the minimum inhibitory concentration (MIC) in assay [7], in assay [8], in assay [9] and in [10] was over 31.3 µg/mL each time. Further, the “antifungal activity (in words)” value in assay [11] is reported as “inactivity”.

Turning to `CCCCCCCCCCCN1CCNCC1` [Compound 6, 1-Undecyl Piperazine], the MIC in [1] is 7.8 µg/mL (≈ 32.4 µM); in [2] it was 7.8 µg/mL (≈ 32.4 µM); in assay [3], 15.6 µg/mL (≈ 64.9 µM); in assay [4], 7.8 µg/mL (≈ 32.4 µM); in assay [5], 7.8 µg/mL (≈ 32.4 µM); in assay [6] it was 7.8 µg/mL (≈ 32.4 µM). Moreover, the minimum inhibitory concentration (MIC) in assay [7] was determined as 15.6 µg/mL (≈ 64.9 µM); in assay [8], 31.3 µg/mL (≈ 130 µM); in assay [9], 15.6 µg/mL (≈ 64.9 µM); in assay [10], 15.6 µg/mL (≈ 64.9 µM). Further, the “antifungal activity class based on MIC values” in [11] is listed as “moderately active”.

The values above are taken from PMC5976239 (Journal of medicinal chemistry, 2017).
